Source: patent US8952024B2, “Herbicidal pyrimidone derivatives” (E I du Pont de Nemours and Company, priority 2009, dated 2015)
Like-named read-outs stand apart in the source and are kept apart here.

What was measured:
Assay in all cases: Test B pre-/postemergence plant response
Type in all cases: in vivo
[1] = tested on: lambsquarters (Chenopodium album); settings: for pest or weed control at 31 g/ha: 31 g ai/ha; for pest or weed control at 62 g/ha: 62 g ai/ha; for pest or weed control at 125 g/ha: 125 g ai/ha
Procedure, shortened: (§1)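 Pre-em in loam/sand; post-em at 1–4 leaf (2–18 cm) in peat mix. Solvent + surfactant formulation. Greenhouse 13–15 d; visual % control vs untreated, 0–100.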

corn (Zea mays) = settings: for Corn plant response rating (crop injury, 0 = no effect, 100 = complete kill) at 31 g/ha: 31 g ai/ha; for Corn plant response rating (crop injury, 0 = no effect, 100 = complete kill) at 62 g/ha: 62 g ai/ha; for Corn plant response rating (crop injury, 0 = no effect, 100 = complete kill) at 125 g/ha: 125 g ai/ha
Procedure, shortened: as §1

[2] = tested on: large crabgrass (Digitaria sanguinalis); settings: for pest or weed control at 31 g/ha: 31 g ai/ha; for pest or weed control at 62 g/ha: 62 g ai/ha; for pest or weed control at 125 g/ha: 125 g ai/ha
Procedure, shortened: as §1

[3] = tested on: blackgrass (Alopecurus myosuroides); settings: for pest or weed control at 31 g/ha: 31 g ai/ha; for pest or weed control at 62 g/ha: 62 g ai/ha; for pest or weed control at 125 g/ha: 125 g ai/ha
Procedure, shortened: as §1

[4] = tested on: Italian ryegrass (Lolium multiflorum); settings: for pest or weed control at 31 g/ha: 31 g ai/ha; for pest or weed control at 62 g/ha: 62 g ai/ha; for pest or weed control at 125 g/ha: 125 g ai/ha
Procedure, shortened: as §1

[5] = tested on: green foxtail (Setaria viridis); settings: for pest or weed control at 31 g/ha: 31 g ai/ha; for pest or weed control at 62 g/ha: 62 g ai/ha; for pest or weed control at 125 g/ha: 125 g ai/ha
Procedure, shortened: as §1

[6] = tested on: woolly cupgrass (Eriochloa villosa); settings: Eriochloa villosa, post-emergence, Postemergence, read-out: Plant response rating, Cupgrass, Woolly
Procedure, shortened: as §1

[7] = Chenopodium album, pre-emergence, Preemergence, scale 0 to 100 (0 no effect, 100 complete control), read-out: Plant response rating, Lambsquarters
[8] = Preemergence, 250 g ai/ha, 0 to 100 scale
[9] = Zea mays, pre-emergence, Preemergence, scale 0 to 100 (0 no effect, 100 complete control)
[10] = Digitaria sanguinalis, pre-emergence, Preemergence, scale 0 to 100 (0 no effect, 100 complete control), read-out: Plant response rating, Crabgrass, Large
[11] = Alopecurus myosuroides, pre-emergence, 360 h, Preemergence, scale 0 to 100 (0 no effect, 100 complete control), read-out: Plant response rating, Blackgrass
[12] = Lolium multiflorum, pre-emergence, Preemergence, scale 0 to 100 (0 no effect, 100 complete control), read-out: Plant response rating, Ryegrass, Italian
[13] = Setaria viridis, pre-emergence, Preemergence, scale 0 to 100 (0 no effect, 100 complete control), read-out: Plant response rating, Foxtail, Green

## COCCn1c(-c2cc(F)cc(F)c2)ncc(C(=O)C2=C(O)C3CCC(C3)C2=O)c1=O (stereo not drawn) [Compound 243, 2-(3,5-difluorophenyl)-5-[(2-hydroxy-4-oxobicyclo[3.2.1]oct-2-en-3-yl)carbonyl]-3-(2-methoxyethyl)-4(3H)-pyrimidinone]
[1]; Chenopodium album, post-emergence, Postemergence, 0 to 100 scale (0 no effect, 100 complete control), read-out: Plant response rating, Lambsquarters
  pest or weed control at 31 g/ha: 100%
[1]; Chenopodium album, post-emergence, Postemergence, scale 0 to 100 (0 no effect, 100 complete control), read-out: Plant response rating, Lambsquarters
  pest or weed control at 62 g/ha: 100%
[1]; Chenopodium album, post-emergence, Postemergence, scale 0 (no effect) to 100 (complete control), 13 to 15 days, read-out: Plant response rating, Lambsquarters
  pest or weed control at 125 g/ha: 100%
[1]; Chenopodium album, post-emergence, Postemergence, 250 g ai/ha, scale 0 to 100 (0 no effect, 100 complete control), 13 to 15 days, read-out: Plant response rating, Lambsquarters
  pest or weed control at 250 g/ha: 100%
[1]; [7]
  pest or weed control at 31 g/ha: 100%
  pest or weed control at 62 g/ha: 100%
[1]; Chenopodium album, pre-emergence, Preemergence, scale 0 to 100, 0 no effect, 100 complete control, read-out: Plant response rating, Lambsquarters
  pest or weed control at 125 g/ha: 100%
[1]; [8]
  Lambsquarters plant response rating: 100
Corn (Zea mays); [8]
  Corn plant response rating: 95
Corn (Zea mays); Zea mays, post-emergence, Postemergence, 0 to 100 scale (0 no effect, 100 complete control)
  Corn plant response rating (crop injury, 0 = no effect, 100 = complete kill) at 31 g/ha: 90%
Corn (Zea mays); Zea mays, post-emergence, Postemergence, scale 0 to 100 (0 no effect, 100 complete control)
  Corn plant response rating (crop injury, 0 = no effect, 100 = complete kill) at 62 g/ha: 95%
Corn (Zea mays); Zea mays, post-emergence, Postemergence, scale 0 (no effect) to 100 (complete control), 13 to 15 days
  Corn plant response rating (crop injury, 0 = no effect, 100 = complete kill) at 125 g/ha: 100%
Corn (Zea mays); Zea mays, post-emergence, Postemergence, 250 g ai/ha, scale 0 to 100 (0 no effect, 100 complete control), 13 to 15 days
  Corn plant response rating (crop injury, 0 = no effect, 100 = complete kill) at 250 g/ha: 100%
Corn (Zea mays); [9]
  Corn plant response rating (crop injury, 0 = no effect, 100 = complete kill) at 31 g/ha: 65%
  Corn plant response rating (crop injury, 0 = no effect, 100 = complete kill) at 62 g/ha: 75%
Corn (Zea mays); Zea mays, pre-emergence, Preemergence, scale 0 to 100, 0 no effect, 100 complete control
  Corn plant response rating (crop injury, 0 = no effect, 100 = complete kill) at 125 g/ha: 85%
[2]; Digitaria sanguinalis, post-emergence, Postemergence, 0 to 100 scale (0 no effect, 100 complete control), read-out: Plant response rating, Crabgrass, Large
  pest or weed control at 31 g/ha: 95%
[2]; Digitaria sanguinalis, post-emergence, Postemergence, scale 0 to 100 (0 no effect, 100 complete control), read-out: Plant response rating, Crabgrass, Large
  pest or weed control at 62 g/ha: 100%
[2]; Digitaria sanguinalis, post-emergence, Postemergence, scale 0 (no effect) to 100 (complete control), 13 to 15 days, read-out: Plant response rating, Crabgrass, Large
  pest or weed control at 125 g/ha: 100%
[2]; Digitaria sanguinalis, post-emergence, Postemergence, 250 g ai/ha, scale 0 to 100 (0 no effect, 100 complete control), 13 to 15 days, read-out: Plant response rating, Crabgrass, Large
  pest or weed control at 250 g/ha: 100%
[2]; [10]
  pest or weed control at 31 g/ha: 100%
  pest or weed control at 62 g/ha: 100%
[2]; Digitaria sanguinalis, pre-emergence, Preemergence, scale 0 to 100, 0 no effect, 100 complete control, read-out: Plant response rating, Crabgrass, Large
  pest or weed control at 125 g/ha: 100%
[2]; [8]
  Crabgrass, Large plant response rating: 100
[3]; Alopecurus myosuroides, post-emergence, 360 h, Postemergence, 0 to 100 scale (0 no effect, 100 complete control), read-out: Plant response rating, Blackgrass
  pest or weed control at 31 g/ha: 60%
[3]; Alopecurus myosuroides, post-emergence, 360 h, Postemergence, scale 0 to 100 (0 no effect, 100 complete control), read-out: Plant response rating, Blackgrass
  pest or weed control at 62 g/ha: 80%
[3]; Alopecurus myosuroides, post-emergence, 360 h, Postemergence, scale 0 (no effect) to 100 (complete control), 13 to 15 days, read-out: Plant response rating, Blackgrass
  pest or weed control at 125 g/ha: 85%
[3]; Alopecurus myosuroides, post-emergence, 360 h, Postemergence, 250 g ai/ha, scale 0 to 100 (0 no effect, 100 complete control), 13 to 15 days, read-out: Plant response rating, Blackgrass
  pest or weed control at 250 g/ha: 98%
[3]; [11]
  pest or weed control at 31 g/ha: 0%
  pest or weed control at 62 g/ha: 10%
[3]; Alopecurus myosuroides, pre-emergence, 360 h, Preemergence, scale 0 to 100, 0 no effect, 100 complete control, read-out: Plant response rating, Blackgrass
  pest or weed control at 125 g/ha: 70%
[3]; [8]
  Blackgrass plant response rating: 95
[4]; Lolium multiflorum, post-emergence, Postemergence, 0 to 100 scale (0 no effect, 100 complete control), read-out: Plant response rating, Ryegrass, Italian
  pest or weed control at 31 g/ha: 60%
[4]; Lolium multiflorum, post-emergence, Postemergence, scale 0 to 100 (0 no effect, 100 complete control), read-out: Plant response rating, Ryegrass, Italian
  pest or weed control at 62 g/ha: 85%
[4]; Lolium multiflorum, post-emergence, Postemergence, scale 0 (no effect) to 100 (complete control), 13 to 15 days, read-out: Plant response rating, Ryegrass, Italian
  pest or weed control at 125 g/ha: 85%
[4]; Lolium multiflorum, post-emergence, Postemergence, 250 g ai/ha, scale 0 to 100 (0 no effect, 100 complete control), 13 to 15 days, read-out: Plant response rating, Ryegrass, Italian
  pest or weed control at 250 g/ha: 95%
[4]; [12]
  pest or weed control at 31 g/ha: 0%
  pest or weed control at 62 g/ha: 10%
[4]; Lolium multiflorum, pre-emergence, Preemergence, scale 0 to 100, 0 no effect, 100 complete control, read-out: Plant response rating, Ryegrass, Italian
  pest or weed control at 125 g/ha: 45%
[4]; [8]
  Ryegrass, Italian plant response rating: 70
[5]; [8]
  Foxtail, Green plant response rating: 100
[5]; Setaria viridis, post-emergence, Postemergence, 0 to 100 scale (0 no effect, 100 complete control), read-out: Plant response rating, Foxtail, Green
  pest or weed control at 31 g/ha: 98%
[5]; Setaria viridis, post-emergence, Postemergence, scale 0 to 100 (0 no effect, 100 complete control), read-out: Plant response rating, Foxtail, Green
  pest or weed control at 62 g/ha: 98%
[5]; Setaria viridis, post-emergence, Postemergence, scale 0 (no effect) to 100 (complete control), 13 to 15 days, read-out: Plant response rating, Foxtail, Green
  pest or weed control at 125 g/ha: 100%
[5]; Setaria viridis, post-emergence, Postemergence, 250 g ai/ha, scale 0 to 100 (0 no effect, 100 complete control), 13 to 15 days, read-out: Plant response rating, Foxtail, Green
  pest or weed control at 250 g/ha: 100%
[5]; [13]
  pest or weed control at 31 g/ha: 35%
  pest or weed control at 62 g/ha: 100%
[5]; Setaria viridis, pre-emergence, Preemergence, scale 0 to 100, 0 no effect, 100 complete control, read-out: Plant response rating, Foxtail, Green
  pest or weed control at 125 g/ha: 100%
[6]; 31 g ai/ha, 0 to 100 scale (0 no effect, 100 complete control)
  pest or weed control at 31 g/ha: 95%
[6]; 62 g ai/ha, scale 0 to 100 (0 no effect, 100 complete control)
  pest or weed control at 62 g/ha: 95%
[6]; 125 g ai/ha, scale 0 (no effect) to 100 (complete control), 13 to 15 days
  pest or weed control at 125 g/ha: 100%
